Source: US7332476B2, “Pyridyl substituted ketolide antibiotics” (Novartis AG, priority 2003, dated 2008)
Converted amounts (≈) assume the structure as drawn.

Columns and labels:
Assay in all cases: MIC, broth microdilution (NCCLS)
[1] = tested on: Streptococcus pneumoniae Stpn_297-749; assay type: cell-based; parameters: MIC, strain ID N: unit not given here; conditions: for MIC: Table 7, Strain ID G (Table 6): S. pneumoniae Stpn_297-749
In short: (§1)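 Broth microdilution per NCCLS in cation-adjusted Mueller-Hinton broth, with 2-5% lysed horse blood added for S. pneumoniae. Inoculum 3×10^5–7×10^5 CFU/ml, 2-fold drug dilutions, 18-24 h at 35° C; S. pneumoniae under 5-10% CO2, others ambient air. MIC = lowest concentration preventing visible growth.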

[2] = tested on: Staphylococcus epidermidis Step_f50654; assay type: cell-based; conditions: Table 7, Strain ID C (Table 6): S. epidermidis Step_f50654; in µg/mL (unit assumed)
In short: as §1

[3] = tested on: Streptococcus pneumoniae Stpn_Erm S 4297; assay type: cell-based; conditions: Table 7, Strain ID J (Table 6): S. pneumoniae Stpn_Erm S 4297
In short: as §1

[4] = tested on: Streptococcus pneumoniae Stpn_Mef S 3427; assay type: cell-based; conditions: Table 7, Strain ID L (Table 6): S. pneumoniae Stpn_Mef S 3427; in µg/mL (unit assumed)
In short: as §1

[5] = tested on: Staphylococcus epidermidis Step_14990; assay type: cell-based; conditions: in µg/mL (unit assumed); for MIC: Table 7, Strain ID B (Table 6): S. epidermidis Step_14990
In short: as §1

[6] = tested on: Enterococcus faecalis Enfa_29212; assay type: cell-based; conditions: in µg/mL (unit assumed); for MIC: Table 7, Strain ID D (Table 6): E. faecalis Enfa_29212
In short: as §1

[7] = tested on: Haemophilus influenzae Hain_49247; assay type: cell-based; conditions: Table 7, Strain ID M (Table 6): H. influenzae Hain_49247; unit assumed
[8] = tested on: Staphylococcus aureus Stau_29213; assay type: cell-based; conditions: Table 7, Strain ID A (Table 6): S. aureus Stau_29213; in µg/mL (unit assumed)
In short: as §1

[9] = tested on: Streptococcus pneumoniae Stpn_49619; assay type: cell-based; parameters: MIC, strain ID M: unit not given beside the values; conditions: for MIC: Table 7, Strain ID F (Table 6): S. pneumoniae Stpn_49619
In short: as §1

[10] = tested on: Streptococcus pneumoniae Stpn_Mef 5654; assay type: cell-based; conditions: Table 7, Strain ID K (Table 6): S. pneumoniae Stpn_Mef 5654; in µg/mL (unit assumed)
Method: (§2) Strains. The bacterial isolates listed in Table 4 were cultivated from −70° C. frozen stocks by two consecutive overnight passages (P1, P2) at 35° C. on 5% blood agar (Remel, Lenexa, Kans.). Chocolate agar (Remel) is used for Haemophilus influenzae. H. influenzae and Streptococcus pneumoniae are incubated in 5-10% CO2
(§3) Drug Stock Preparation. To determine the amount of solvent to be used to give the desired final concentration, the formula “weight obtained in mg/final concentration in mg/ml” will be used. It will give the amount of solvent in ml needed to be added to give the desired concentration. For example, if 2.5 mg/ml is the desired concentration and the weight of compound is 13.7 mg, then the amount of solvent to be added is […]. Methanol is used as the solvent to dissolve the test compounds. Further dilution of stock is done in sterile, deionized water. Drug stocks are kept frozen at −70° C., protected from light.
(§4) Susceptibility Testing. MICs are determined by the broth microdilution method in accordance with the NCCLS guidelines. In brief, organism suspensions are adjusted to a 0.5 McFarland standard to yield a final inoculum between 3×10^5 and 7×10^5 CFU/ml. Drug dilutions and inocula are made in sterile, cation adjusted Mueller-Hinton Broth (CAMHB) (Remel) for all but S. pneumoniae [CAMHB with 2-5% lysed horse blood (Remel)] and H. influenzae [Haemophilus Test Medium (Remel)]. An inoculum volume of 100 μl is added to wells containing 100 μl of broth with 2-fold serial dilutions of drug. All inoculated microdilution trays are incubated in ambient air at 35° C. for 18-24 hours, except for S. pneumoniae, and H. influenzae (both at 5-10% CO2).
(§5) Following appropriate incubation, the MIC is determined and the MIC is defined as the lowest concentration of the drug that prevented visible growth.
as §2, with “8” for “4”
(§6) Following appropriate incubation, the MIC is determined and the MIC is defined as the lowest concentration of the drug that prevented visible growth. […] Antibacterial activity of representative compounds of the invention were compared against telitromycin.

[11] = tested on: S. pneumoniae Stpn_Erm 6849; assay type: cell-based, Streptococcus pneumoniae; conditions: for MIC: Table 7, Strain ID I (Table 6): S. pneumoniae Stpn_Erm 6849, unit assumed
Method: as §2, §3, §4, §5

[12] = tested on: Streptococcus pyogenes Stpy_8668; assay type: cell-based; parameters: MIC, strain ID G: unit not given beside the values; conditions: for MIC: Table 7, Strain ID E (Table 6): S. pyogenes Stpy_8668
In short: as §1

[13] = tested on: Streptococcus pneumoniae Stpn_280-962; assay type: cell-based; parameters: MIC, strain ID O: unit not given beside the values; conditions: for MIC: Table 7, Strain ID H (Table 6): S. pneumoniae Stpn_280-962
In short: as §1

[14] = tested on: Staphylococcus aureus Stau_33591; assay type: cell-based; conditions: strain ID B; broth microdilution; unit assumed
Method: as §2, with “8” for “4”
as §3, §4, §6

CC[C@H]1OC(=O)[C@@](C)(F)C(=O)[C@H](C)[C@@H](OC2O[C@H](C)C[C@H](N(C)C)[C@H]2O)[C@@](C)(OC)C[C@@H](C)C(=O)[C@H](C)[C@H]2N(CCCC(C)(C)n3cnc4cccnc43)C(=O)O[C@]12CC (stereo partly drawn) [Example 40, (3aS,4R,7S,9R,10R,11S,13R,15R,15aR)-3a,4-diethyl-7-fluoro-1-[4-(3H-imidazo[4,5-b]pyridin-3-yl)-4-methylpentyl]-11-methoxy-7,9,11,13,15-pentamethyl-2,6,8,14-tetraoxotetradecahydro-2H-oxacyclotetradecino[4,3-d][1,3]oxazol-10-yl-3,4,6-trideoxy-3-(dimethylamino)-D-xylo-hexopyranoside]
MIC [1]: =0.05
MIC [2]: 0.2
MIC [3]: =0.05
MIC [4]: 0.2
MIC [5]: 0.2
MIC [6]: 0.1
MIC [7]: 6.25 µg/mL (≈ 7.39 µM)
MIC [8]: 0.2
MIC [9]: =0.05
MIC [10]: 0.78
MIC [11]: 0.2 µg/mL (≈ 0.236 µM)
MIC [12]: =0.05
MIC [13]: =0.05

CCC1OC(=O)C(C)C(=O)C(C)C(OC2OC(C)CC(N(C)C)C2O)C(C)(OC)CC(C)C(=O)C(C)C2C1OC(=O)N2CCCOc1ccc(-c2cccnc2)cc1 (stereo not shown) [Compound 20r]
MIC ([1]; unit assumed): 0.1 µg/mL (≈ 0.123 µM)
MIC [2]: 1.56
MIC ([3]; unit assumed): 25 µg/mL (≈ 30.9 µM)
MIC [4]: 0.1
MIC [5]: 3.13
MIC [6]: 1.56
MIC [7]: 50 µg/mL (≈ 61.7 µM)
MIC [8]: 3.13
MIC ([9]; unit assumed): 0.1 µg/mL (≈ 0.123 µM)
MIC [10]: 1.56
MIC [11]: 25 µg/mL (≈ 30.9 µM)
MIC ([12]; unit assumed): 0.4 µg/mL (≈ 0.494 µM)
MIC ([13]; unit assumed): 0.1 µg/mL (≈ 0.123 µM)

C#C[C@]12OC(=O)N(CCCCn3cnc(-c4ccc(C)nc4)c3)[C@@H]1[C@@H](C)C(=O)[C@H](C)C[C@](C)(OC)[C@H](OC1O[C@H](C)C[C@H](N(C)C)[C@H]1O)[C@@H](C)C(=O)[C@@H](C)C(=O)O[C@@H]2CC (stereo partly shown) [XXXIII]
MIC, strain ID B [14]: > 50 µg/mL
MIC, strain ID N ([1]; strain ID N, broth microdilution): =0.05
MIC, strain ID C ([5]; strain ID C, broth microdilution): 0.2
MIC, strain ID E ([6]; strain ID E, broth microdilution): 0.1
MIC, strain ID M ([9]; strain ID M, broth microdilution): =0.05
MIC, strain ID P ([11]; strain ID P, broth microdilution, in µg/mL (unit assumed)): 1.56
MIC, strain ID G ([12]; strain ID G, broth microdilution): =0.05
MIC, strain ID O ([13]; strain ID O, broth microdilution): =0.05

CCC1OC(=O)C(C)C(=O)C(C)C(OC2OC(C)CC(N(C)C)C2O)C(C)(OC)CC(C)C(=O)C(C)C2C1OC(=O)N2CCCCc1cnc2ccccc2c1 (stereo not shown) [Compound 20n]
MIC [1]: =0.05
MIC [2]: 0.4
MIC ([3]; unit assumed): 0.1 µg/mL (≈ 0.128 µM)
MIC [4]: 0.1
MIC [5]: 0.2
MIC [6]: 0.1
MIC [7]: 6.25 µg/mL (≈ 7.99 µM)
MIC [8]: 0.4
MIC [9]: =0.05
MIC [10]: 0.2
MIC [11]: 0.4 µg/mL (≈ 0.512 µM)
MIC [12]: =0.05
MIC [13]: =0.05

CC[C@H]1OC(=O)[C@H](C)C(=O)[C@H](C)[C@@H](OC2O[C@H](C)C[C@H](N(C)C)[C@H]2O)[C@@](C)(OC)C[C@@H](C)C(=O)[C@H](C)[C@H]2N(CCCC(C)(C)n3cnc(-c4cccnc4)c3)C(=O)O[C@]12CC (stereo partly drawn) [Example 31, (3aS,4R,7R,9R,10R,11S,13R,15R,15aR)-3a,4-diethyl-11-methoxy-7,9,11,13,15-pentamethyl-1-[4-methyl-4-(4-pyridin-3-yl-1H-imidazol-1-yl)pentyl]-2,6,8,14-tetraoxotetradecahydro-2H-oxacyclotetradecino[4,3-d][1,3]oxazol-10-yl-3,4,6-trideoxy-3-(dimethylamino)-D-xylo-hexopyranoside]
MIC [1]: =0.05
MIC [2]: 0.4
MIC ([3]; unit assumed): 0.2 µg/mL (≈ 0.234 µM)
MIC [4]: 0.2
MIC [5]: 0.4
MIC [6]: 0.2
MIC [7]: 6.25 µg/mL (≈ 7.32 µM)
MIC [8]: 0.2
MIC [9]: =0.05
MIC [10]: 0.78
MIC [11]: 0.4 µg/mL (≈ 0.468 µM)
MIC [12]: =0.05
MIC [13]: =0.05

C/C=C\[C@]12OC(=O)N(CCCCn3cnc(-c4cccnc4)c3)[C@@H]1[C@@H](C)C(=O)[C@H](C)C[C@](C)(OC)[C@H](OC1O[C@H](C)C[C@H](N(C)C)[C@H]1O)[C@@H](C)C(=O)[C@](C)(F)C(=O)O[C@@H]2CC (stereo partly drawn) [Example 66, (3aS,4R,7S,9R,10R,11S,13R,15R,15aR)-4-ethyl-7-fluoro-11-methoxy-7,9,11,13,15-pentamethyl-2,6,8,14-tetraoxo-3a-[(1Z)-prop-1-enyl]-1-[4-(4-pyridin-3-yl-1H-imidazol-1-yl)butyl]tetradecahydro-1H-oxacyclotetradecino[4,3-d][1,3]oxazol-10-yl-3,4,6-trideoxy-3-(dimethylamino)-D-xylo-hexopyranoside]
MIC [1]: =0.05
MIC [2]: 0.2
MIC ([3]; unit assumed): 0.1 µg/mL (≈ 0.117 µM)
MIC [4]: 0.1
MIC [5]: 0.2
MIC [6]: .01
MIC [7]: 6.25 µg/mL (≈ 7.3 µM)
MIC [8]: 0.2
MIC [9]: =0.05
MIC [10]: 0.4
MIC [11]: 0.2 µg/mL (≈ 0.234 µM)
MIC [12]: =0.05
MIC [13]: =0.05
